US20230092005A1, “COMPOSITIONS AND METHODS FOR TREATING CANCER AND TUMOR” (OBLATO, INC., priority 2020, published 2023)

Experiments:
Solubility in water = assay type: physicochemical; conditions: free acid
Protocol: In certain embodiments, the 2,4-ds-PBN can be prepared by a two-step reaction sequence. For example, tertiary butyl […] (2-methyl-2-nitropropane) can be converted to the corresponding n-hydroxylamine using a suitable catalyst such as an activated zinc/acetic acid catalyst or an aluminum/mercury amalgam catalyst. This reaction can be carried out in about 0.5 to 12 hours and especially about 2 to 6 hours or so at a temperature of about 15-100° C. in a liquid reaction medium such as alcohol/water mixture in the case of the zinc catalyst or an ether/water mixture in the case of the aluminum amalgam catalyst. The freshly formed hydroxylamine can be reacted with 4-formyl-1,3-benzenedisulfonic acid, with a slight excess of the amine being used. This reaction can be carried out at similar temperature conditions. This reaction can be completed in from about 10 to about 24 hours. The formed material through the two reactions can be the free acid and be characterized by a molecular weight of 337.3 g/mole. In some embodiments, the formed material can be a white powdery material that decomposes upon heating. In non-limiting embodiments, the formed material can be characterized by solubility in water of greater than 1 gram/ml and a^1H NMR spectrum in D2O of 8.048 ppm (dd, 8.4, 1.7 Hz); 8.836 ppm (d, 8.4 Hz); 8.839 ppm (d, 1.7 Hz); 8.774 ppm (s).

[1] = test system: human A549 lung cancer xenografts; experiment: TUNEL staining of extracted A549 xenograft tumors (apoptosis counting and grading); assay type: in vivo, BALB/c Nude mouse; conditions: for Apoptosis counting No. (group mean ± S.D.): TUNEL positive cells per 1 mm^2; for Number of apoptotic cells in the tumor compared to the negative control group (G1): G5, 2 mg/kg, TUNEL
Excerpt: Histopathological test: The extracted tumors were fixed in 10% neutral buffered formalin solution (10% neutral buffered formalin). After sectioning the tumors to a certain thickness (about 3 mm), those were subjected to the general preparation procedure, embedded in paraffin, cut into 4 to 5 μm size, and tissue sections were stained with Hematoxylin and Eosin (H&E) and TUNEL. IHC (Immunohistochemistry) slides, cut into 4 to 5 μm size, were produced and sent to the sponsor (Negative Control Group (G1), Test substance 2 (G3, Animal ID Nos.: 1301, 1302, 1303, 1307, 1310), Test substance 3 (G4, Animal ID Nos.: 1401, 1402, 1404, 1408, 1409)). Determination of TUNEL staining results: After histological examination of the entire cross-section of the tumor for grading (±, +, ++, +++, ++++) of apoptosis, the nucleated brown stained cells were read as […] was counted. The apoptosis of the tumor was determined by the number of positive cells per […] (1 mm^2). The apoptosis of the tumor was determined by calculating the average number of positive cells and graded into the corresponding severity. The number of positive cells in which apoptosis occurred was determined by counting the number of positive cells per unit area (1 mm^2). Histopathological test (Table 7, FIGS. 7-11): The extracted fixed tumor was cut to a certain thickness (about 3 mm), then subjected to general tissue treatment, paraffin-embedded to produce blocks, and tissue sections of 4 to 5 μm in size were prepared. Then, Hematoxylin & Eosin (H&E) staining and TUNEL staining were performed.

[2] = test system: human A549 lung cancer xenografts; experiment: Anti-cancer efficacy in nude mice carrying human A549 lung cancer xenografts (tumor volume, tumor weight, growth inhibition rate); assay type: in vivo, BALB/c Nude mouse; conditions: for Tumor volume (mean): G5, 2 mg/kg I.P. once a week
Protocol: The anti-cancer efficacy of OKN-007 was assessed after oral administration in nude mice carrying human A549 lung cancer xenografts implanted subcutaneously in the flank. Human lung cancer cell line, A549 was used. […] The frozen cells were thawed in a water bath. Cells were placed in a tube containing the medium and centrifuged (1,000 rpm, 5 minutes) to discard the supernatant. After re-suspending with the culture medium, cells were placed in a cell culture flask and incubated in a 5% CO2 incubator at 37° C. Cells were sub-cultured at a ratio of 1:5 when grown with confluency of 70-80% in the culture container. Cells cultured on the day of cell line transplantation were centrifuged (1,000 rpm, 5 minutes) to discard the supernatant and to make cell suspension with D-PB S. Then, the cell suspension was mixed with Matrigel at a ratio of 1:1 (5×10^7 cells/mL). BALB/c Nude mouse, [NT]-Foxnlnu/CrlOri, SPF was used. Sex, number, age, and body weight range of animals at receipt: The mice (65 mice) were male, 5 weeks old, and had about 14.5-19.6 g weight at the receipt. Cell transplantation: After the quarantine-acclimation period, the body weight measurement and cell transplantation in healthy animals were performed. […] Prepared cell (1×10^7 cells/0.2 mL) suspension was injected subcutaneously into the right flank with disposable syringes. […] Group assignment: After transplanting cells, each tumor size was monitored for 65 animals. When tumor volume reached within 87-112 mm^3, 50 animals were assigned to the respective groups with an average tumor volume of about 99 mm^3. Based on the tumor volume, animals were selected and randomly distributed into 5 groups (10 animals/group). Dosing Route: Oral administration. The route of administration was oral because the clinical application of the test substance is oral. Method and frequency of administration: For negative control and test substance, oral administration was performed once a day for 4 weeks for a total of 28 times using a disposable syringe. For positive control, intraperitoneal administration was performed once a week for 4 weeks for a total of 4 times using a disposable syringe. Dosing Route: The dose levels of the test substance were selected at 150, 300, and 600 mg/kg. The dose level of the positive substance was selected at 2 mg/kg. The dose volume was selected at 10 mL/kg for all groups, and the individual dose was calculated based on the bodyweight of animals just prior to dosing. Measurement of tumor volume: The largest diameter (a) and the smallest diameter (b) of each tumor were measured using calipers twice a week during the observation period. The tumor volume (TV) was calculated twice a week according to the following formula: TV (mm^3)=(a (mm)×b^2 (mm^2))/2. The volume of a tumor before administration to each animal was set to the value measured at the time of group assignment. Tumor removal and measurement of body weight: After the observation period, animals were anesthetized by inhalation of isoflurane. After the tumor was extracted, the weight of the removed tumor was recorded. The tumor growth inhibition rate (IR) was calculated using the following formula: IR (%)=(1-T/C)×100, where T is a mean tumor weight in the test substance group, and positive substance group, and C is a mean tumor weight in the negative control group.

[3] = test system: human A549 lung cancer xenografts; experiment: Hematoxylin & Eosin (H&E) staining of extracted A549 xenograft tumors (necrosis grading); assay type: in vivo, BALB/c Nude mouse
Excerpt: Histopathological test: The extracted tumors were fixed in 10% neutral buffered formalin solution (10% neutral buffered formalin). After sectioning the tumors to a certain thickness (about 3 mm), those were subjected to the general preparation procedure, embedded in paraffin, cut into 4 to 5 μm size, and tissue sections were stained with Hematoxylin and Eosin (H&E) and TUNEL. IHC (Immunohistochemistry) slides, cut into 4 to 5 μm size, were produced and sent to the sponsor (Negative Control Group (G1), Test substance 2 (G3, Animal ID Nos.: 1301, 1302, 1303, 1307, 1310), Test substance 3 (G4, Animal ID Nos.: 1401, 1402, 1404, 1408, 1409)). Determination of Hematoxylin & Eosin (H&E) staining results: Necrosis of tumors was assessed by grading (±, +, ++, +++, ++++) the extent of necrosis in the whole section of the tumor. Necrosis was evaluated by morphological changes such as collapse or disappearance of the nucleus and eosinophilic change of cytoplasm. The extent of tumor necrosis was determined by the percentage of the following necrosis area. Histopathological test (Table 7, FIGS. 7-11): The extracted fixed tumor was cut to a certain thickness (about 3 mm), then subjected to general tissue treatment, paraffin-embedded to produce blocks, and tissue sections of 4 to 5 μm in size were prepared. Then, Hematoxylin & Eosin (H&E) staining and TUNEL staining were performed.

## CC(C)(C)/[N+]([O-])=C\c1ccc(S(=O)(=O)O)cc1S(=O)(=O)O [2,4-ds-PBN, 2,4-disulfonyl a-phenyl tert-butyl nitrone]
Solubility in water
  solubility: > 1000 mg/mL

## N.N.[Cl][Pt][Cl] [cisplatin, Cis-Diammineplatinum (II) dichloride, reference compound]
[1]; G5, 2 mg/kg I.P., N=10
  Apoptosis grade + : number of animals: 2
  Apoptosis grade ++ (moderate): number of animals: 0
  Apoptosis grade +++ (marked): number of animals: 0
  Apoptosis grade ++++ (severe): number of animals: 0
  Apoptosis grade ± (minimal): number of animals: 8
[1]; G5, 2 mg/kg I.P.
  Apoptosis counting No. (group mean ± S.D.): 87.5 ± 50.6 No./mm^2
[1]; G5, 2 mg/kg I.P., listed as Cisplatin
  Apoptosis counting No. (group mean ± S.D.): 87.5±50.6 No./mm^2
[1]
  Number of apoptotic cells in the tumor compared to the negative control group (G1): significant increase in the number of apoptotic cells
[1]; listed as Cisplatin
  Number of apoptotic cells in the tumor compared to the negative control group (G1): no statistically significant difference
[2]; G5, 2 mg/kg I.P. once a week for 4 weeks, tumors weighed at day 29
  Tumor weights (mean): 0.37 g
[2]; day 1 (before administration)
  Tumor volume (mean): 99 mm^3
[2]; day 5 after administration
  Tumor volume (mean): 152 mm^3
[2]; day 8 after administration
  Tumor volume (mean): 171 mm^3
[2]; day 12 after administration
  Tumor volume (mean): 176 mm^3
[2]; day 15 after administration
  Tumor volume (mean): 199 mm^3
[2]; day 19 after administration
  Tumor volume (mean): 250 mm^3
[2]; day 22 after administration
  Tumor volume (mean): 314 mm^3
[2]; day 26 after administration
  Tumor volume (mean): 385 mm^3
[2]; day 29 after administration
  Tumor volume (mean): 481 mm^3
[2]; G5, 2 mg/kg I.P., IR=(1-T/C)x100 from mean tumor weights, day 29
  Tumor growth inhibition rate (IR): 59.8%
[2]; G5, 2 mg/kg, end of the observation period
  Tumor volume and size compared to the negative control: statistically significant decrease in tumor volume and size
[3]; G5, 2 mg/kg I.P., N=10
  Necrosis grade + : number of animals: 2
  Necrosis grade ++ (moderate): number of animals: 2
  Necrosis grade +++ (marked): number of animals: 0
  Necrosis grade ++++ (severe): number of animals: 0
  Necrosis grade ± (minimal): number of animals: 6
[3]; G5, 2 mg/kg, H&E
  Severity of necrosis compared to the negative control group (G1): does not significantly different
